Data from patent US10576085B2, “Substituted aminopurine compounds, compositions thereof, and methods of treatment therewith” (Signal Pharmaceuticals, LLC, priority 2016, dated 2020).

Tested on: cancer cell lines of Table 2
Assay: Multiplexed cytotoxicity assay: apoptosis (activated caspase-3; Cal_X2, Cal_X5, Max_Fold_Change)
Assay type: cell-based
Experimental: Cells are grown in RPMI1640, 10% FBS, 2 mM L-alanyl-L-Glutamine, 1 mM Na pyruvate or a special medium in a humidified atmosphere of 5% CO2 at 37° C. Cells are seeded into 384-well plates and incubated in a humidified atmosphere of 5% CO2 at 37° C. Compounds are added 24 h post cell seeding. At the same time, a time zero untreated cell plate is generated. After a 72 hour incubation period, cells are fixed and stained with fluorescently labeled antibodies and nuclear dye to allow visualization of nuclei, apoptotic cells and mitotic cells. Apoptotic cells are detected using an anti-active caspase-3 antibody. Mitotic cells are detected using an anti phospho-histone-3 antibody. Compounds are serially diluted 3.16-fold and assayed over 10 concentrations in a final assay concentration of 0.1% DMSO from the highest test concentration of 10 μM. Automated fluorescence microscopy was carried out using a Molecular Devices ImageXpress Micro XL high-content imager, and images are collected with a 4× objective.
The activated caspase-3 marker labels cells from early to late stage apoptosis. Concentrations of test compound that cause a 5-fold induction in the caspase-3 signal (Cal_X5) indicate significant apoptosis induction. The maximal induction of caspase 3 by compound in comparison with DMSO control is reported as Max_Fold_Change.
In Another Experiment, Cells were Grown in RPMI1640, 10% FBS, 2 mM L-alanyl-L-Glutamine, 1 mM Na pyruvate or a special medium in a humidified atmosphere of 5% CO2 at 37° C. Cells were seeded into 384-well plates and incubated in a humidified atmosphere of 5% CO2 at 37° C. Compounds were added 24 h post cell seeding. At the same time, a time zero untreated cell plate was generated. After a 72 hour incubation period, cells were fixed and stained with fluorescently labeled antibodies and nuclear dye to allow visualization of nuclei, apoptotic cells and mitotic cells. Apoptotic cells were detected using an anti-active caspase-3 antibody. Mitotic cells were detected using an anti phospho-histone-3 antibody. Compounds were serially diluted 3.16-fold and assayed over 10 concentrations in a final assay concentration of 0.1% DMSO from the highest test concentration of 10 μM. Automated fluorescence microscopy was carried out using a Molecular Devices ImageXpress Micro XL high-content imager, and images were collected with a 4× objective.
The activated caspase-3 marker labels cells from early to late stage apoptosis. Concentrations of test compound that cause a 2-fold (Cal-X2) or 5-fold induction in the caspase-3 signal (Cal_X5) indicated significant apoptosis induction. The maximal induction of caspase 3 by compound in comparison with DMSO control was reported as Max_Fold_Change.

C[C@]1(C(N)=O)CC[C@@H](n2c(Nc3c(Cl)cc(Cl)cc3Cl)nc3cnc(N[C@@H]4CCOC[C@H]4F)nc32)CC1 [Compound 1, cis-4-[2-{[(3S,4R)-3-fluorooxan-4-yl]amino}-8-(2,4,6-trichloroanilino)-9H-purin-9-yl]-1-methyl cyclohexane-1-carboxamide]
CalX2 (639V, Bladder): 0.0841 µM
CalX5 (639V, Bladder): 0.465 µM
Max fold change (639V, Bladder): 6.33
CalX2 (647V, Bladder): 2.7413 µM
CalX5 (647V, Bladder): 4.45 µM
Max fold change (647V, Bladder): 19.29
CalX2 (769P, Kidney): 0.2023 µM
CalX5 (769P, Kidney): 5.11 µM
Max fold change (769P, Kidney): 5.67
CalX2 (786O, Kidney): 10 µM
CalX5 (786O, Kidney): 10 µM
Max fold change (786O, Kidney): 0.83
CalX2 (A7, Skin, Melanoma): 5.0814 µM
CalX5 (A7, Skin, Melanoma): 9.4 µM
Max fold change (A7, Skin, Melanoma): 5.51
CalX2 (A101D, Skin, Melanoma): 0.4207 µM
CalX5 (A101D, Skin, Melanoma): 3.71 µM
Max fold change (A101D, Skin, Melanoma): 7.93
CalX2 (A375, Skin, Melanoma): 0.0673 µM
CalX5 (A375, Skin, Melanoma): 0.0827 µM
Max fold change (A375, Skin, Melanoma): 103.79
CalX2 (A498, Kidney): 0.5562 µM
CalX5 (A498, Kidney): 10 µM
Max fold change (A498, Kidney): 4.72
CalX2 (A704, Kidney): 10 µM
CalX5 (A704, Kidney): 10 µM
Max fold change (A704, Kidney): 0.96
CalX2 (A2058, Skin, Melanoma): 0.065 µM
CalX5 (A2058, Skin, Melanoma): 0.204 µM
Max fold change (A2058, Skin, Melanoma): 11.68
CalX2 (ACHN, Kidney): 0.78 µM
CalX5 (ACHN, Kidney): 10 µM
Max fold change (ACHN, Kidney): 2.97
CalX2 (AU565, Breast): 3.8749 µM
CalX5 (AU565, Breast): 7.14 µM
Max fold change (AU565, Breast): 14.18
CalX2 (BC1, Lymphoma): 5.1005 µM
CalX5 (BC1, Lymphoma): 6.54 µM
Max fold change (BC1, Lymphoma): 8.72
CalX2 (BCP1, Lymphoma): 4.8663 µM
CalX5 (BCP1, Lymphoma): 7.36 µM
Max fold change (BCP1, Lymphoma): 6.56
CalX2 (BFTC905, Bladder): 0.0179 µM
CalX5 (BFTC905, Bladder): 0.0414 µM
Max fold change (BFTC905, Bladder): 45.3
CalX2 (BT20, Breast): 10 µM
CalX5 (BT20, Breast): 10 µM
Max fold change (BT20, Breast): 1.81
CalX2 (BT474, Breast): 10 µM
CalX5 (BT474, Breast): 10 µM
Max fold change (BT474, Breast): 0.94
CalX2 (BV173, Leukemia): 0.4959 µM
CalX5 (BV173, Leukemia): 10 µM
Max fold change (BV173, Leukemia): 2.91
CalX2 (C32, Skin, Melanoma): 0.0451 µM
CalX5 (C32, Skin, Melanoma): 0.0778 µM
Max fold change (C32, Skin, Melanoma): 110.9
CalX2 (C32TG, Skin, Melanoma): 0.0608 µM
CalX5 (C32TG, Skin, Melanoma): 0.117 µM
Max fold change (C32TG, Skin, Melanoma): 42.82
CalX2 (CA46, Lymphoma): 3.2395 µM
CalX5 (CA46, Lymphoma): 8.08 µM
Max fold change (CA46, Lymphoma): 9.46
CalX2 (CAKI1, Kidney): 0.2015 µM
CalX5 (CAKI1, Kidney): 10 µM
Max fold change (CAKI1, Kidney): 4.12
CalX2 (CAKI2, Kidney): 0.1631 µM
CalX5 (CAKI2, Kidney): 0.449 µM
Max fold change (CAKI2, Kidney): 6.26
CalX2 (CCRFCEM, Leukemia): 3.4279 µM
CalX5 (CCRFCEM, Leukemia): 6.95 µM
Max fold change (CCRFCEM, Leukemia): 12.74
CalX2 (CEMC1, Leukemia): 4.1828 µM
CalX5 (CEMC1, Leukemia): 5.22 µM
Max fold change (CEMC1, Leukemia): 11.27
CalX2 (CHL1, Skin, Melanoma): 1.2376 µM
CalX5 (CHL1, Skin, Melanoma): 10 µM
Max fold change (CHL1, Skin, Melanoma): 3.46
CalX2 (CMLT1, Leukemia): 0.0948 µM
CalX5 (CMLT1, Leukemia): 10 µM
Max fold change (CMLT1, Leukemia): 4.85
CalX2 (COLO829, Skin, Melanoma): 0.0421 µM
CalX5 (COLO829, Skin, Melanoma): 0.125 µM
Max fold change (COLO829, Skin, Melanoma): 24.28
CalX2 (CROAP2, Lymphoma): 2.9603 µM
CalX5 (CROAP2, Lymphoma): 4.2 µM
Max fold change (CROAP2, Lymphoma): 50.79
CalX2 (D283MED, CNS, Medulloblastoma): 8.3456 µM
CalX5 (D283MED, CNS, Medulloblastoma): 10 µM
Max fold change (D283MED, CNS, Medulloblastoma): 2.23
CalX2 (D341MED, CNS, Medulloblastoma): 7.7855 µM
CalX5 (D341MED, CNS, Medulloblastoma): 10 µM
Max fold change (D341MED, CNS, Medulloblastoma): 2.14
CalX2 (DAOY, CNS, Medulloblastoma): 3.2773 µM
CalX5 (DAOY, CNS, Medulloblastoma): 5.22 µM
Max fold change (DAOY, CNS, Medulloblastoma): 16.68
CalX2 (DAUDI, Lymphoma): 3.9392 µM
CalX5 (DAUDI, Lymphoma): 5.33 µM
Max fold change (DAUDI, Lymphoma): 10.08
CalX2 (DB, Lymphoma): 6.1153 µM
CalX5 (DB, Lymphoma): 6.5 µM
Max fold change (DB, Lymphoma): 7.11
CalX2 (DOHH2, Lymphoma): 2.4833 µM
CalX5 (DOHH2, Lymphoma): 3.99 µM
Max fold change (DOHH2, Lymphoma): 20.41
CalX2 (EB2, Lymphoma): 5.7381 µM
CalX5 (EB2, Lymphoma): 10 µM
Max fold change (EB2, Lymphoma): 4.16
CalX2 (EB3, Lymphoma): 6.1469 µM
CalX5 (EB3, Lymphoma): 7.66 µM
Max fold change (EB3, Lymphoma): 5.5
CalX2 (EM2, Leukemia): 10 µM
CalX5 (EM2, Leukemia): 10 µM
Max fold change (EM2, Leukemia): 1.55
CalX2 (G361, Skin, Melanoma): 0.0428 µM
CalX5 (G361, Skin, Melanoma): 0.12 µM
Max fold change (G361, Skin, Melanoma): 24.48
CalX2 (G401, Kidney): 0.0717 µM
CalX5 (G401, Kidney): 0.179 µM
Max fold change (G401, Kidney): 30.87
CalX2 (G402, Kidney): 0.0162 µM
CalX5 (G402, Kidney): 0.637 µM
Max fold change (G402, Kidney): 7.34
CalX2 (GA10, Lymphoma): 0.6477 µM
CalX5 (GA10, Lymphoma): 1.94 µM
Max fold change (GA10, Lymphoma): 6.49
CalX2 (H9, Lymphoma): 0.0222 µM
CalX5 (H9, Lymphoma): 0.4 µM
Max fold change (H9, Lymphoma): 7.33
CalX2 (HEL9217, Leukemia): 3.2991 µM
CalX5 (HEL9217, Leukemia): 6.57 µM
Max fold change (HEL9217, Leukemia): 6.23
CalX2 (HEPG2, Liver): 0.0041 µM
CalX5 (HEPG2, Liver): 0.0108 µM
Max fold change (HEPG2, Liver): 62.47
CalX2 (HLE, Liver): 0.8174 µM
CalX5 (HLE, Liver): 10 µM
Max fold change (HLE, Liver): 2.5
CalX2 (HLF, Liver): 10 µM
CalX5 (HLF, Liver): 10 µM
Max fold change (HLF, Liver): 1.95
CalX2 (HMCB, Skin, Melanoma): 10 µM
CalX5 (HMCB, Skin, Melanoma): 10 µM
Max fold change (HMCB, Skin, Melanoma): 1.8
CalX2 (HS294T, Skin, Melanoma): 0.154 µM
CalX5 (HS294T, Skin, Melanoma): 2.15 µM
Max fold change (HS294T, Skin, Melanoma): 5.74
CalX2 (HS445, Lymphoma): 4.9128 µM
CalX5 (HS445, Lymphoma): 7.7 µM
Max fold change (HS445, Lymphoma): 5.65
